Data as given in US8263596B2, “Kinase inhibitors and method of treating cancer” (University Health Network, priority 2010, dated 2012).
Counter-ions that a name gives are not always drawn. Like-named read-outs stand apart in the source and are kept apart here.

Tests used:
[1] = molecular target: T1, Aurora A (Homo sapiens, UniProt O14965); assay: Aurora A inhibition assay (Z-Lyte); assay type: biochemical
T1 sequence (O14965 1-403): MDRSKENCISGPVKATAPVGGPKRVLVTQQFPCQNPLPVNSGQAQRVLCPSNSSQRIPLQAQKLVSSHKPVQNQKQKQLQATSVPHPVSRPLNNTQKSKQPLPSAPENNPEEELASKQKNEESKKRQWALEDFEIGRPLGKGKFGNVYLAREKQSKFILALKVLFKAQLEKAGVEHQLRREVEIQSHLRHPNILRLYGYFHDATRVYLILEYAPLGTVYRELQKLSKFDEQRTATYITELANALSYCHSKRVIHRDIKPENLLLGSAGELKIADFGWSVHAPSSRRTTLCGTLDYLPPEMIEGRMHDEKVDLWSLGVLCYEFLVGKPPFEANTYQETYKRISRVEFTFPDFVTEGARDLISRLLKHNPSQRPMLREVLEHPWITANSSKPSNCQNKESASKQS

[2] = tested on: HUV-EC-C cells; assay: In vitro angiogenesis assay (tube formation); assay type: cell-based; settings: 4 hr
Protocol: Activity against these RTKs can result in antiangiogenic activity which is associated with slowed tumor growth and/or tumor regression. To measure the antiangiogenic effects of compounds of the invention, selected examples were tested in an angiogenesis assay as described below.
HUV-EC-C cells were obtained from the American Type Culture Collection (ATCC, CRL-1730), and were used at early passage for the assay. The in vitro Angiogenesis Assay Kit (Chemicon) was used according to the manufacturer's recommendation. An ice-cold mixture of ECMatrix was transferred into a precooled 96-well plate. After the matrix solution had solidified (>1 hr incubation at 37° C.), 8,000 cells were mixed with the appropriate inhibitor concentration (in 100 microlitres EGM-2) and plated into each well. The clinical antiangiogenic, Sutent was used as a positive control in comparison to a compound of the invention, A13. After incubation at 37° C. for 4 hr, tube formation was inspected. Two methods, pattern recognition and branch point counting, were used to quantify the progression of angiogenesis and expressed as a percentage of the control tube count (FIGS. 1 and 2).

[3] = tested on: SW620 colon cancer cells; assay type: cell-based; settings: Homo sapiens, SW-620, 120 h, read-out: Cell Line GI50 Range SW-620
[4] = tested on: A549 lung cancer cells; assay type: cell-based; settings: Homo sapiens, A549, 120 h, read-out: Cell Line GI50 Range A-549
[5] = molecular target: Aurora B (Homo sapiens, UniProt Q96GD4); assay: Aurora B inhibition assay (Z-Lyte); assay type: biochemical; settings: read-out: IC50 Ranges Aurora B
Sequence of Aurora B (Q96GD4 whole entry): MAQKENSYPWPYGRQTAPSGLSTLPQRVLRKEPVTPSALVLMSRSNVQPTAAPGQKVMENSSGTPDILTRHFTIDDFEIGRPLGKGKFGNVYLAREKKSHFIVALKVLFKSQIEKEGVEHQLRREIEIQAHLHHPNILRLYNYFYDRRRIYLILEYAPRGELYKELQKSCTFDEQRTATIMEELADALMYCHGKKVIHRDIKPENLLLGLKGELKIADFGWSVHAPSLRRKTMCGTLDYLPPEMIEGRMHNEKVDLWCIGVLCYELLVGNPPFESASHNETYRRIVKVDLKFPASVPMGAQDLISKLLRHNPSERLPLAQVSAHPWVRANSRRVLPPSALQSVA

[6] = molecular target: T2, human PLK4 (Homo sapiens, UniProt O00444); assay: PLK4 inhibition assay (indirect ELISA); assay type: biochemical
T2 construct: amino terminal GST fusion of residues 1-391 of human PLK4; made in house; host or cells: E. coli
T2 sequence (O00444 1-391): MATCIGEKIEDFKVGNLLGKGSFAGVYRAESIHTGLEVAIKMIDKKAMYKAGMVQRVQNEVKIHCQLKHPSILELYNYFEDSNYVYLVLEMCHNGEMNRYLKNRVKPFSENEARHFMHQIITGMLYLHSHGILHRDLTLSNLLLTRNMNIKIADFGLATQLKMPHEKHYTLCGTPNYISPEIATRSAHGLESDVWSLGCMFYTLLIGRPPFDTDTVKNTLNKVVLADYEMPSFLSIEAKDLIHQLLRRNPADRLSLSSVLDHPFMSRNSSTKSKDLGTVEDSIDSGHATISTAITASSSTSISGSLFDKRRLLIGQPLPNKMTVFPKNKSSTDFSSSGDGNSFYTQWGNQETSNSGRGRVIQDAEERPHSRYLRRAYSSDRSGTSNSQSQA

[7] = molecular target: T3, FLT3 (Homo sapiens, UniProt P36888); assay: FLT3 inhibition assay (Z-Lyte); assay type: biochemical; settings: read-out: IC50 Ranges Flt3
T3 construct: purchased Invitrogen PV3182
T3 sequence (P36888 27-993): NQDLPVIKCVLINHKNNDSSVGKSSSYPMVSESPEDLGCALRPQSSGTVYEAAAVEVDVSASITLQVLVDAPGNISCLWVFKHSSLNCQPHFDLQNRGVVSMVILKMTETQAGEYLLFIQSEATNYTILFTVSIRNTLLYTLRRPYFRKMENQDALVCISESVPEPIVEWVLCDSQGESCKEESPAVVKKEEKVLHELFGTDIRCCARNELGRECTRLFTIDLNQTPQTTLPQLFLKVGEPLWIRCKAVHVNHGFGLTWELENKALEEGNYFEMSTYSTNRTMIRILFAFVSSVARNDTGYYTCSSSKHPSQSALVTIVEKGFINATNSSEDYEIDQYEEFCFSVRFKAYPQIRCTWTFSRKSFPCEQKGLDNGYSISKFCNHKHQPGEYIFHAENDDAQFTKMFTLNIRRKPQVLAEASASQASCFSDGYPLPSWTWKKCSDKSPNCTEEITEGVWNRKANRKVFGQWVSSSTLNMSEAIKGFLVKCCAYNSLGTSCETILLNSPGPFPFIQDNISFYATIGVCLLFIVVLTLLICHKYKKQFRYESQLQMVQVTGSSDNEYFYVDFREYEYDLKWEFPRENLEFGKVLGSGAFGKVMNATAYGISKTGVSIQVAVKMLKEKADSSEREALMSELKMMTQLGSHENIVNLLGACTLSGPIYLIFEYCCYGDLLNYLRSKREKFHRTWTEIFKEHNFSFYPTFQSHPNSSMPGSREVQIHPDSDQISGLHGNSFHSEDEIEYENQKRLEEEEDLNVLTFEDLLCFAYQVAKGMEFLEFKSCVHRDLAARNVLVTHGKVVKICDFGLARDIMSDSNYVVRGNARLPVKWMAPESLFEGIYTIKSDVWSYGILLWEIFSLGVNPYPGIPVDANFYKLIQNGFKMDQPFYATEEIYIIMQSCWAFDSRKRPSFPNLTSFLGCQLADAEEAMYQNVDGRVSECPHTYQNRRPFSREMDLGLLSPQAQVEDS

IC50 [1]	SMILES	GI50 [3]	GI50 [4]	IC50 [5]	other results
100 to 1000 nM	COc1ccc2c(c1)[C@]1(C[C@H]1c1ccc3c(/C=C/c4cccc(CN(C)C)c4)n[nH]c3c1)C(=O)N2 [Example A134, (1R,2S)-2-(3-(3-((dimethylamino)methyl)styryl)-1H-indazol-6-yl)-5′-methoxyspiro[cyclopropane-1,3′-indolin]-2′-one 2,2,2-trifluoroacetate]	–	–	–	–
–	COc1ccc2c(c1)[C@]1(C[C@H]1c1ccc3c(-c4ccc(N5CCN(C)CC5)nc4)n[nH]c3c1)C(=O)N2 (relative stereo) [Example A13, (1R*,2S*)-5′-Methoxy-2-(3-(6-(4-methylpiperazin-1-yl)pyridin-3-yl)-1H-indazol-6-yl)spiro[cyclopropane-1,3′-indolin]-2′-one]	–	–	–	antiangiogenic effect (tube formation) [2]: anti-agiogenic effects at submicromolar concentrations
100 to 1000 nM	COc1ccc2c(c1)[C@]1(C[C@H]1c1ccc3c(/C=C/c4cccc(CN5CCOCC5)c4)n[nH]c3c1)C(=O)N2 [Example A132, (1R,2S)-5′-methoxy-2-(3-(3-(morpholinomethyl)styryl)-1H-indazol-6-yl)spiro[cyclopropane-1,3′-indolin]-2′-one 2,2,2-trifluoroacetate]	–	–	–	–
–	COc1ccc2c(c1)[C@]1(C[C@H]1c1ccc3c(-c4ccc(C(=O)N5CCN(C)CC5)cc4)n[nH]c3c1)C(=O)N2 (relative stereo) [Example A148, (1R*,2S*)-5′-methoxy-2-(3-(4-(4-methylpiperazine-1-carbonyl)phenyl)-1H-indazol-6-yl)spiro[cyclopropane-1,3′-indolin]-2′-one 2,2,2-trifluoroacetate]	1000 to 10000 nM	100 to 1000 nM	100 to 1000 nM	IC50 ([6]; read-out: IC50 Ranges PLK4): < 100 nM
< 100 nM	COCCN1C(=O)[C@@]2(C[C@H]2c2ccc3c(/C=C/c4ccc(CN(C)C)cc4)n[nH]c3c2)c2ccccc21 (relative stereo) [Example A180, (1R*,2S*)-(E)-2-(3-(4-((dimethylamino)methyl)styryl)-1H-indazol-6-yl)-1′-(2-methoxyethyl)spiro[cyclopropane-1,3′-indolin]-2′-one 2,2,2-trifluoroacetate]	–	–	–	–
–	COc1ccc2c(c1)[C@]1(C[C@H]1c1ccc3c(-c4ccc(N5CCC(O)CC5)nc4)n[nH]c3c1)C(=O)N2 (relative stereo) [Example A117, (1R*,2S*)-2-(3-(6-(4-hydroxypiperidin-1-yl)pyridin-3-yl)-1H-indazol-6-yl)-5′-methoxyspiro[cyclopropane-1,3′-indolin]-2′-one 2,2,2-trifluoroacetate]	> 10000 nM	1000 to 10000 nM	100 to 1000 nM	–
–	CN(C)Cc1ccc(/C=C/c2n[nH]c3cc([C@@H]4C[C@@]45C(=O)Nc4ccccc45)ccc23)cc1 (relative stereo) [Example A23, (1R*,2S*)-(E)-2-(3-(4-((dimethylamino)methyl)styryl)-1H-indazol-6-yl)spiro[cyclopropane-1,3′-indolin]-2′-one 2,2,2-trifluoroacetate]	–	–	–	antiangiogenic effect (tube formation) [2]: anti-agiogenic effects at submicromolar concentrations
–	CCc1ccc2c(c1)[C@]1(C[C@H]1c1ccc3c(-c4ccc(N5CCN(C)CC5)cc4)n[nH]c3c1)C(=O)N2 (relative stereo) [Example A142, (1R*,2S*)-5′-ethyl-2-(3-(4-(4-methylpiperazin-1-yl)phenyl)-1H-indazol-6-yl)spiro[cyclopropane-1,3′-indolin]-2′-one 2,2,2-trifluoroacetate]	–	–	–	inhibition at 1 µM [1]: < 50%
–	COc1ccc2c(c1)[C@]1(C[C@H]1c1ccc3c(/C=C/c4ccc(CN5CCOCC5)s4)n[nH]c3c1)C(=O)N2 [Example A105, (1R,2S)-5′-methoxy-2-(3-((E)-2-(5-(morpholinomethyl)thiophen-2-yl)vinyl)-1H-indazol-6-yl)spiro[cyclopropane-1,3′-indolin]-2′-one hydrochloride]	< 100 nM	< 100 nM	–	–
–	O=C1Nc2ccccc2[C@]12C[C@H]2c1ccc2c(/C=C/c3ccncc3)n[nH]c2c1 (relative stereo) [Example A22, (1R*,2S*)-(E)-2-(3-(2-(pyridin-4-yl)vinyl)-1H-indazol-6-yl)spiro-[cyclo-propane-1,3′-indolin]-2′-one]	–	–	–	antiangiogenic effect (tube formation) [2]: anti-agiogenic effects at submicromolar concentrations
–	CN1C(=O)[C@@]2(C[C@H]2c2ccc3c(/C=C/c4ccc(N5CCNCC5)cc4)n[nH]c3c2)c2ccccc21 [Example A90, (1R,2S)-(E)-1′-methyl-2-(3-(4-(piperazin-1-yl)styryl)-1H-indazol-6-yl)spiro[cyclopropane-1,3′-indolin]-2′-one hydrochloride]	< 100 nM	< 100 nM	–	–
–	COc1ccc2c(c1)[C@]1(C[C@H]1c1ccc3c(-c4ccc(C5CCNCC5)cc4)n[nH]c3c1)C(=O)N2 (relative stereo) [Example A122, (1R*,2S*)-5′-methoxy-2-(3-(4-(piperidin-4-yl)phenyl)-1H-indazol-6-yl)spiro[cyclopropane-1,3′-indolin]-2′-one 2,2,2-trifluoroacetate]	< 100 nM	< 100 nM	–	–
–	COc1ccc2c(c1)[C@]1(C[C@H]1c1ccc3c(-c4cccc(CN5CCOCC5)c4)n[nH]c3c1)C(=O)N2 (relative stereo) [Example A136, (1R*,2S*)-5′-methoxy-2-(3-(3-(morpholinomethyl)phenyl)-1H-indazol-6-yl)spiro[cyclopropane-1,3′-indolin]-2′-one 2,2,2-trifluoroacetate]	–	–	< 100 nM	IC50 [7]: > 1000 nM; IC50 ([6]; read-out: IC50 Ranges PLK4): < 100 nM

SMILES	IC50 [1]	GI50 [3]	GI50 [4]	IC50 [5]	other results
COc1ccc2c(c1)[C@]1(C[C@H]1c1ccc3c(/C=C/c4ccc(C(=O)N5CCN(C)CC5)cc4)n[nH]c3c1)C(=O)N2 (relative stereo) [Example A179, (1R*,2S*)-(E)-5′-methoxy-2-(3-(4-(4-methylpiperazine-1-carbonyl)styryl)-1H-indazol-6-yl)spiro[cyclopropane-1,3′-indolin]-2′-one 2,2,2-trifluoroacetate]	< 100 nM	–	–	< 100 nM	IC50 ([6]; read-out: IC50 Ranges PLK4): < 100 nM
CN1CCN(c2ccc(-c3n[nH]c4cc([C@@H]5C[C@@]56C(=O)Nc5ccccc56)ccc34)cn2)CC1 (racemic) [Example A18, (1R*,2S*)-2-(3-(6-(4-Methylpiperazin-1-yl)pyridin-3-yl)-1H-indazol-6-yl)spiro[cyclopropane-1,3′-indolin]-2′-one]	100 to 1000 nM	–	–	< 100 nM	IC50 [6]: < 100 nM
